# Laboratory results from patent EP0457908A1, “HYDROCHLORIDE 2,3,3a,4,5,6-HEXAHYDRO-8-CYCLOHEXYL-1H-PYRAZINO (3,2,1-j,k)CARBAZOL, METHOD OF OBTAINING IT AND A PHARMACEUTICAL PREPARATION OF ANTIDEPRESSIVE ACTION BASED ON IT” (priority 1989, dated 1991).
# Where two headings read alike, the source gives them in different places.
# Key:
# [1] = system: white mice; experiment: Reserpine-induced blepharoptosis; format: in vivo; conditions: acute and chronical experiments
# Procedure: The compound according to the present invention was tested for the ability to decrease depriming effects of reserpin (blepharoptosis, hypothermia and the like).
# Tests were carried out on white mice of both sexes with a mass of 16-18 g.
# The compound according to the present invention was orally administered in a single dose and repeatedly during 18 days.
# The compound according to the present invention was administered in the single doses of 1, 2.5 and 5 mg/kg; repeatedly - in the doses of 0.5, 1.0, 2.5 and 5 mg/kg. The single-time administration and the last administration of the 18 days' course were effected 60 minutes prior to the intraperitoneal administration of reserpine (2.5 mg/kg). For a comparative assessment in these and other experiments pyrazidol and imipramine were also administered.
# [2] = system: mice and rats; experiment: Carcinogenic properties, chronic experiment; format: in vivo
# [3] = system: rats; experiment: Acute toxicity, rats; format: in vivo
# From the text: (§1) The acute and chronical toxicity of the compound according to the present invention was studied on mice, rats and rabbits.
# [4] = system: mice; experiment: Acute toxicity, mice; format: in vivo
# From the text: as §1
# [5] = Central and peripheral anticholinergic effect (oxotremorine, arecoline, galantamine); format: in vivo; conditions: 10 and 25 mg/kg orally and 1.0, 2.0 and 5.0 mg/kg intravenously
# Procedure: The compound according to the present invention was also tested for its central and peripheral anticholinergic effect.
# [6] = system: male rats; experiment: Conditional reflex of passive avoidance after amnesia (antiamnestic effect); format: in vivo; conditions: 1 mg/kg oral
# Procedure: Also studied was the effect of the compound according to the present invention on reproduction of the memory traces upon amnesia.
# The experiments were carried out using male rats of a mass of 180-220 g.
# The antiamnestic effect of the compound according to the present invention was assessed by the method of a conditional reflex of a passive avoidance with a subsequent use, as amnesic factors, of an electric shock (50 mA, 0.3 ms) through ear electrodes or scopolamine (1 mg/kg hypodermally).
# The learning of the conditional reflex of a passive avoidance was effected by the "Step-down" method (Izquerdo, 1981) in an experimental unit consisting of a 30x30x40 cm chamber with an electrified floor having in its centre a plastic platform of 10x15x0.5 cm size. A rat was placed onto the platform and a latent period of its escape therefrom was recorded (in seconds). When escaping the platform onto the floor, the rat was subjected to an electric irritation on paws (0.5 mA, 10 seconds) that made it to climb the platform. The learning course took 6 sessions, each of 3 minutes duration. The conditional response was regarded as acquired if an animal remained on the platform for 1 minute.
# The amnesic effect was produced immediately after learning course and 30 minutes thereafter the compound according to the present invention was administered in the doses of 1 and 3 mg/kg or (for comparison) pyracetam was administered in the doses of 100, 300, 600 and 1,000 mg/kg. The reproduction of the memory trace was assessed 24 hours after the electric shock and 2.5 hours after administration of scopolamine.
# [7] = system: male white mice; experiment: Hyperlocomotion induced by d,l-amphetamine; format: in vivo; conditions: 10-20 minutes after d,l-amphetamine 2.5 mg/kg intraperitoneally, distilled water 1,924.5±177.6
# Procedure: The influence on hyperlocomotion induced by d,l-amphetamine was studied in experiments on male white mice with a mass of 20-22 g.
# The locomotive activity of the mice was recorded 10-20 minutes after administration of d,l-amphetamine for 10 minutes.
# [8] = system: normotensive female rats of the Vistar line; experiment: Influence on the pressor effect of tyramine
# Procedure: The experiments were conducted on conscious normotensive female rats of the Vistar line with a mass of 210-250 g placed under conditions of a free behaviour.
# [9] = Overall comparison of pharmacological parameters with pyrazidol; format: in vivo; conditions: certain pharmacological parameters
# [10] = system: fruit fly, embryonic cells of rats, bone-marrow cells of mice, culture of human lymphocytes; experiment: Mutagenous effect tests; conditions: genetic mutations, dominant lethal mutations, chromosome aberrations
# Procedure: The compound according to the present invention was also tested for a possible mutagenous effect by methods of evaluation of genetic mutations on fruit fly: dominant lethal mutations were studied on embryonic cells of rats, chromosome aberrations - in bone-marrow cells of mice and in a culture of human lymphocytes.
# [11] = system: white mice; experiment: Porsolt's swimming behaviour test (duration of immobilization); format: in vivo; conditions: for Duration of immobilization, %: distilled water = 100
# Procedure: The effect of the compound according to the present invention on the duration of immobilization in Porsolt's swimming behaviour test (Porsolt et al., 1977) in experiments on white mice of both sexes with a mass of 16-18 g. […] Sixty minutes after the last (or a single) administration of the preparations, the mice were placed into cylinders (10 cm diameter, 25 cm height) filled with water to 6 cm. The temperature of water was 21-22 °C. […] The number and duration of all stops in swimming (immobilization) over the observation period were recorded.
# [12] = system: normotensive rats of the Vistar line; experiment: Effect on arterial pressure and heart beat rate; format: in vivo
# Procedure: The compound according to the present invention was also tested for its effect on the cardiovascular system.
# [13] = system: white mice; experiment: Enhancement of the effect of 5-hydroxytryptophane (head shaking); format: in vivo
# Procedure: The compound according to the present invention was tasted for the exciting effect of 5-hydroxytryptophane (head shaking).
# The compound according to the present invention in the doses of 1.0, 2.5, 5.0 and 10 mg/kg was administered orally 60 minutes prior to an intraperitoneal administration of 5-hydroxytryptophane (50 mg/kg).
# [14] = 5-days' administration, 1.0 mg/kg orally (dose from row order)
# [15] = 5-days' administration, 2.5 mg/kg orally (dose from row order)
# [16] = 5-days' administration, 5.0 mg/kg orally (dose from row order)
# [17] = 18-days' administration, 2.5 mg/kg orally (dose from row order)
# [18] = 18-days' administration, 5.0 mg/kg orally (dose from row order)
# [19] = single administration, 1.0 mg/kg orally
# [20] = single administration, 2.5 mg/kg orally
# [21] = single administration, 5.0 mg/kg orally
substance,measurement,setting,value
"2,3,3a,4,5,6-hexahydro-8-cyclohexyl-1H-pyrazino-(3,2,1-j,k)-carbazole hydrochloride [Compound of the present invention]","anti-reserpine effect, superior to pyrazidol",[1],more than 10 times
same,carcinogenic properties,[2],did not reveal carcinogenic properties
same,LD₅₀,[3],2.5 g/kg
same,LD₅₀,[3]; oral administration,"2,500 mg/kg"
same,LD₅₀,"[4]; oral administration, mice","1,300 mg/kg"
same,LD₅₀,[4]; white mice,1.3 g/kg
same,central and peripheral anticholinergic effect,[5],absence of the anticholinergic effect
same,"Number of rats, %, remained on the platform for 1 minute, 2.5 hours after administration of scopolamine (1 mg/kg hypodermally)","[6]; amnesia control 10±3.3, distilled water 85±2.0",22±6.0%
same,"Number of rats, %, remained on the platform for 1 minute, 1 day after electric shock","[6]; electroshock alone 14.2±3.0, distilled water 85±2.0",25±3.2%
same,Average value of locomotor activity of a group of 5 mice for 10 minutes,[7]; 1.0 mg/kg oral,"3,482.6±445.5"
same,Average value of locomotor activity of a group of 5 mice for 10 minutes,[7]; 2.5 mg/kg oral,"3,315.5±462.6"
same,Average value of locomotor activity of a group of 5 mice for 10 minutes,[7]; 5.0 mg/kg oral,"4,885.0±537.2"
same,enhanced effect of tyramine,[8]; 5 mg/kg orally for 5 days,no enhanced effect of tyramine was observed
same,time after administration at which the enhanced effect of tyramine was noticed,[8]; 25 mg/kg orally,6 to 18 h
same,enhanced the pressor effect of tyramine,"[8]; 25 mg/kg orally, tyramine 20 mg/kg orally",2 times
same,more active than the known preparation pyrazidol,[9],2-10 times
same,mutagenic properties,[10],revealed no mutagenic properties
same,"Duration of immobilization, Seconds, M±m",[11]; [14],102 ± 8.1 s
same,"Duration of immobilization, %",[11]; [14],61%
same,"Duration of immobilization, Seconds, M±m",[11]; [15],102 ± 6.1 s
same,"Duration of immobilization, %",[11]; [15],61%
same,"Duration of immobilization, Seconds, M±m",[11]; [16],88 ± 5.2 s
same,"Duration of immobilization, %",[11]; [16],53%
same,"Duration of immobilization, %","[11]; 18-days' administration, 1.0 mg/kg orally (dose from row order)",58%
same,"Duration of immobilization, Seconds, M±m",[11]; [17],96 ± 11.0 s
same,"Duration of immobilization, %",[11]; [17],52%
same,"Duration of immobilization, Seconds, M±m",[11]; [18],75 ± 9.8 s
same,"Duration of immobilization, %",[11]; [18],41%
same,active in doses lower than those of imipramine and pyrazidol,"[11]; Porsolt's test, mice, oral",10 times
same,"Duration of immobilization, Seconds, M±m",[11]; [19],145 ± 10.4 s
same,"Duration of immobilization, %",[11]; [19],92%
same,"Duration of immobilization, Seconds, M±m",[11]; [20],111 ± 9.9 s
same,"Duration of immobilization, %",[11]; [20],69%
same,"Duration of immobilization, Seconds, M±m",[11]; [21],105 ± 8.1 s
same,"Duration of immobilization, %",[11]; [21],63%
same,heart beat rate,[12]; 10 mg/kg oral daily for 5 days,did not change the heart beat rate
same,effect on the arterial pressure and heart beat rate,"[12]; 1-100 mg/kg orally, free behaviour",no essential effect
same,more active than pyrazidol in enhancing the convulsive activity of 5-hydroxytryptophane,"[13]; mice, ratio of ED₅₀",about 8 times
same,"ED₅₀, the dose at which head shaking were noticed in 50% of the animals","[13]; orally, 60 minutes prior to 5-hydroxytryptophane 50 mg/kg intraperitoneally, read 25 minutes after",2.5 (2.1-3.0) mg/kg
